Measured values published in article PMC12858405, “Ideal efficacy photoswitching for chromocontrol of TRPC4/5 channel functions in live tissues” (Nature Chemical Biology, 2026).

Assays:
[1] = biological target: T1, TRPC4 (Mus musculus, UniProt Q9QUQ5); experiment: Whole-cell patch clamp with monochromated photoswitching, TRPC4-expressing HEK293 cells; type: cell-based; details: 10 nM, Vh −80 mV, action spectrum 330-505 nm
T1 construct: expressed in transfected cells; host or cells: HEK293
T1 sequence (Q9QUQ5 1-890 isoform Q9QUQ5-2): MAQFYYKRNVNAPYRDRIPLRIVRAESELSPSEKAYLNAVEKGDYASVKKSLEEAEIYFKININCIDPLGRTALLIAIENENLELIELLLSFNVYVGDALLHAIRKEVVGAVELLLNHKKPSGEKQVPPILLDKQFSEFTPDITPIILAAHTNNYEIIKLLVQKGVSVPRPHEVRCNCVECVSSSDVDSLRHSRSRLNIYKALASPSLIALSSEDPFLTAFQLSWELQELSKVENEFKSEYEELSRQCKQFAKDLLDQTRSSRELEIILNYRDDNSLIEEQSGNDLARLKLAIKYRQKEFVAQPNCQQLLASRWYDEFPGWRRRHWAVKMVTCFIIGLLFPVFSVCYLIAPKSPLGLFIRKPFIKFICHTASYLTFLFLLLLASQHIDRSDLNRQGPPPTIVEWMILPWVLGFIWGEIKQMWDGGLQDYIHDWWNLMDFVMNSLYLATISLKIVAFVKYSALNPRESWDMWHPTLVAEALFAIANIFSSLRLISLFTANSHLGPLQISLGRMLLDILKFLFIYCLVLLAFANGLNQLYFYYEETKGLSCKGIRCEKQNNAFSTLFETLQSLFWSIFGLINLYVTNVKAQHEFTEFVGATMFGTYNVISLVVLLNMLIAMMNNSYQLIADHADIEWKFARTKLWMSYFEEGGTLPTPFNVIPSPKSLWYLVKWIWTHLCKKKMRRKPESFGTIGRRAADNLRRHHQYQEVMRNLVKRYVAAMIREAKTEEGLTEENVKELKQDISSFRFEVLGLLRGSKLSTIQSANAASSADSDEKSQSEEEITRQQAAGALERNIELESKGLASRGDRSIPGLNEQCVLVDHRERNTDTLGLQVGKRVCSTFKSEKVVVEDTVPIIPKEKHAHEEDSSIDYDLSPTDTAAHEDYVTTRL
Description: We next performed electrophysiological patch clamp experiments to characterize the action and specificity of channel modulation in more detail. […] Secondly, electrophysiology readouts linearly and temporally resolve ionic currents through the activated channels, unlike the delayed and attenuated fluorometric Ca^2+ influx analyses in FLIPR. Thirdly, the electrophysiology setup can use narrow-bandwidth monochromated light at any wavelength.
The repeatability of on–off photocycling allowed us to extract action spectra for both (1) photoactivation (Fig. 2d,e) and (2) photodeactivation (Fig. 2f,g) in situ in live cells.
The advantage of the ephys setup is that freely chosen monochromated wavelengths can be used for photoswitching, while in parallel there is no optical imaging light to counteract these optimal wavelengths: and this allows for optimising the photoswitchability.
repeatability of on/off photocycling allowed us to extract action spectra for both (1) photoactivation (Fig. 2d,e) and (2) photodeactivation (Fig. 2f,g) in situ in live cells.
physiological whole-cell recordings of TRPC4 currents in voltage clamp mode (a,b,d-g: Vh = -80 mV; c: Vh scan)
return to baseline currents throughout the applied voltage range. d-g, Spectral scans to extract the wavelength […]

[2] = tested on: mouse small intestine segments; experiment: Spontaneous motility of atropine-paralysed intestinal segments, video imaging with 365/447 nm
Description: Müller, Niemeyer, et al., Schaefer & Thorn-Seshold 2025: Ideal Efficacy Photoswitching of TRPC4/5 in Tissue 7 Spontaneous motility and isometric contractility (Fig. 6)
After sacrificing mice in accordance to the European (Council Directive 2010/63/EU) and German guidelines for the welfare of experimental animals, the abdomen was opened, and intestinal loops were mobilised. Ileal segments were obtained starting 10 mm from the ileocoecal junction. Ileal segments with a length of 3 mm for myography experiments or with a length of 8-12 mm for observation of spontaneous movement were cut out and flushed with carbogen-equilibrated KBRS.
The adventitial layer was carefully peeled off, using a pair of forceps. […]
Spontaneous motility: for macroscopic observation, ileal segments were placed in KBRS-filled 24-well plates, and treated with 300 nM atropine (which has long been known to override the inherent oscillatory bias of the gut nerve system to paralyse digestion) or its solvent. […] A time-lapse movie was recorded, and 365 nm or 447 nm LED were electronically switched to induce photoswitching. The recorded image stack was cut into substacks, covering a single well, each. The temporal variance of the shadow cast by the segments was calculated for consecutive 1 s bins and taken as a measure to obtain the temporal signature of the motility. […]

- Wavelength range for effective off-photoswitching (channel currents) [1]: 400-480 nm
SMILES: Cn1c(=O)n(CCCO)c(=O)c2c1nc(Oc1ccc(N=Nc3ccccc3)c(OC(F)(F)F)c1)n2Cc1ccc(Cl)cc1 [AzPico]
- Response of atropine-paralysed small intestine segments to UV illumination ([2]; 10 nM, 300 nM atropine, stopped by 447 nm): initiated vigorous motions
- Photoresponse of colon segments ([2]; treated colon segments): no photoresponse
